According to US20260199323A1, “LIGAND COMPOUNDS FOR E3 UBIQUITIN LIGASE, PROTEIN DEGRADERS DEVELOPED ON BASIS OF LIGAND COMPOUNDS, AND USES THEREOF” (GLUETACS THERAPEUTICS (SHANGHAI) CO., LTD., priority 2021, published 2026):
Where two headings read alike, the source gives them in different places.

Columns and labels:
Assay type in all cases: cell-based, Human
T47D = assay: CCK-8 tumor cell proliferation, T47D; conditions: Table 8, designed based on ER inhibitors; 96 h
Protocol: (§1) The tumor cells used herein were cultured in a cell culture medium listed in table 4 at 37° C. in an incubator with 5% CO2. Prior to experimentation, all cells used were correctly identified by STR profiling, and tested negative for mycoplasma through routine screenings.
(§2) IC50 values of the compounds of the present disclosure (including the compounds in Tables 1 and 3, and compounds of examples) were measured using the Meilun Cell Counting Kit-8 kit from Dalian Meilun Biotech Co., Ltd. Assay details are as follows: tumor cells were seeded in a 96-well plate at a density listed in Table 5. After 24 h, 100 μL of the inoculated cells were treated with 0.5 μL of the compounds of the present disclosure (including the compounds in Tables 1 and 3, and compounds of examples) at 10 different successively decreasing concentrations (starting at the highest concentration of 10 μM; 5-fold serial dilutions). After the cells were treated with the compounds of the present disclosure for a period of time, the cell viability detection reagent was added to the culture medium for cell viability assessment according to the instructions provided with the CCK-8 kit. […] The growth inhibition of the compounds of the present disclosure on cells was plotted by Prism Graphpad software, and the IC50 values of the compounds of the present disclosure were calculated therefrom.

Mino = assay: CCK-8 tumor cell proliferation, Mino; conditions: Homo sapiens; Table 18, FAK inhibitor based; Mino; read-out: IC50 inhibiting proliferation of tumor cells, Mino
How it was run: (§3)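 Authenticated cells, kept at 37 °C and 5% CO2, were given compound a day after plating; doses spanned 10 levels in 5-fold decrements from 10 μM. IC50 values come from CCK-8 viability readings.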

HGC-27 = assay: CCK-8 tumor cell proliferation, HGC-27; conditions: Homo sapiens; Table 18, FAK inhibitor based; HGC-27; read-out: IC50 inhibiting proliferation of tumor cells, HGC-27
Protocol: as §1, §2

SR = assay: CCK-8 tumor cell proliferation, SR; conditions: Homo sapiens; Table 18, FAK inhibitor based; SR; read-out: IC50 inhibiting proliferation of tumor cells, SR
How it was run: as §3

CCRF-CEM = assay: CCK-8 tumor cell proliferation, CCRF-CEM; conditions: Homo sapiens, CCRF-CEM, read-out: IC50 inhibiting proliferation of tumor cells, CCRF-CEM
How it was run: as §3

SW620 = assay: CCK-8 tumor cell proliferation, SW620; conditions: Homo sapiens, SW-620, SW620, read-out: IC50 inhibiting proliferation of tumor cells, SW620
How it was run: as §3

PC-9 = assay: CCK-8 tumor cell proliferation, PC-9; conditions: Homo sapiens; Table 18, FAK inhibitor based; PC-9; read-out: IC50 inhibiting proliferation of tumor cells, PC-9
MDA-MB-231 = assay: CCK-8 tumor cell proliferation, MDA-MB-231; conditions: Homo sapiens; Table 18, FAK inhibitor based; MDA-MB-231; read-out: IC50 inhibiting proliferation of tumor cells, MDA-MB-231
How it was run: as §3

CAL-62 = assay: CCK-8 tumor cell proliferation, CAL-62; conditions: Homo sapiens; Table 19, IRAK4 inhibitor based; CAL-62; read-out: IC50 inhibiting proliferation of tumor cells, CAL-62
How it was run: as §3

SU-DHL-4 = assay: CCK-8 tumor cell proliferation, SU-DHL-4; conditions: Homo sapiens, Table 19, IRAK4 inhibitor based, read-out: IC50 inhibiting proliferation of tumor cells, SU-DHL-4
Protocol: as §1, §2

Jurkat = assay: CCK-8 tumor cell proliferation, Jurkat; conditions: Homo sapiens, Table 19, IRAK4 inhibitor based, read-out: IC50 inhibiting proliferation of tumor cells, Jurkat
How it was run: as §3

LNcap = assay: CCK-8 tumor cell proliferation, LNcap; conditions: Homo sapiens; Table 19, IRAK4 inhibitor based; Lncap; read-out: IC50 inhibiting proliferation of tumor cells, Lncap
How it was run: as §3

[1] = Table 19, IRAK4 inhibitor based

SMILES	IC50 for inhibiting the proliferation of tumor cells, T47D (T47D)	IC50 (Mino) [nM]	IC50 (HGC-27) [nM]	IC50 (SR) [nM]	IC50 (CCRF-CEM; Table 18, FAK inhibitor based) [nM]	IC50 (SW620; Table 18, FAK inhibitor based) [nM]	IC50 (PC-9) [nM]	IC50 (MDA-MB-231) [nM]	IC50 (CCRF-CEM; [1]) [nM]	IC50 (SW620; [1]) [nM]	IC50 (CAL-62) [nM]	IC50 (SU-DHL-4) [nM]	IC50 (Jurkat) [nM]	IC50 (LNcap) [nM]
CN(CCOc1ccc(/C(=C(/CCCl)c2ccccc2)c2ccccc2)cc1)Cc1ccc2c(c1)CN(C1CCC(=O)NC1=O)C2=O (stereo not shown) [GT-02970, (Z)-3-(5-(((2-(4-(4-chloro-1,2-diphenylbut-1-en-1-yl)phenoxy)ethyl)(methyl)amino)methyl)-1-oxoisoindolin-2-yl)piperidine-2,6-dione]	A+													
CNC(=O)c1ccccc1Nc1cc(Nc2ccc(N3CCN(Cc4ccc5c(c4)CN(C4CCC(=O)NC4=O)C5=O)CC3)cc2OC)ncc1C(F)(F)F (stereo not shown) [GT-03014, 2-((2-((4-(4-((2-(2,6-dioxopiperidin-3-yl)-1-oxoisoindolin-5-yl)methyl)piperazin-1-yl)-2-methoxyphenyl)amino)-5-(trifluoromethyl)pyridin-4-yl)amino)-N-methylbenzamide]		< 50	1000 to 5000	100 to 500	< 50	< 50	1000 to 5000	50 to 100						
CNC(=O)c1ccccc1Nc1cc(Nc2ccc(N3CCC(NCc4ccc5c(c4)CN(C4CCC(=O)NC4=O)C5=O)CC3)cc2OC)ncc1C(F)(F)F (stereo not shown) [GT-03213, 2-((2-((4-(4-(((2-(2,6-dioxopiperidin-3-yl)-1-oxoisoindolin-5-yl)methyl)amino)piperidin-1-yl)-2-methoxyphenyl)amino)-5-(trifluoromethyl)pyridin-4-yl)amino)-N-methylbenzamide]			500 to 1000	< 50	100 to 500	500 to 1000	500 to 1000	< 50						
O=C1CCC(N2Cc3c(ccc(CN4CCC(n5cc(NC(=O)c6coc(-c7ccnc(NCC8CC8)c7)n6)c(C(F)F)n5)CC4)c3F)C2=O)C(=O)N1 (stereo not shown) [GT-04154, 2-(2-((cyclopropylmethyl)amino)pyridin-4-yl)-N-(3-(difluoromethyl)-1-(1-((2-(2,6-dioxopiperidin-3-yl)-4-fluoro-1-oxoisoindolin-5-yl)methyl)piperidin-4-yl)-1H-pyrazol-4-yl)oxazole-4-carboxamide]									< 50	< 50	< 50	< 50	< 50	< 50
O=C1CCC(N2Cc3cc(CN4CCC(n5cc(NC(=O)c6coc(-c7ccnc(NCC8CC8)c7)n6)c(C(F)F)n5)CC4)c(F)cc3C2=O)C(=O)N1 (stereo not shown) [GT-04171, 2-(2-((cyclopropylmethyl)amino)pyridin-4-yl)-N-(3-(difluoromethyl)-1-(1-((2-(2,6-dioxopiperidin-3-yl)-6-fluoro-1-oxoisoindolin-5-yl)methyl)piperidin-4-yl)-1H-pyrazol-4-yl)oxazole-4-carboxamide]									< 50	< 50	< 50	< 50	< 50	< 50
O=C1CCC(N2Cc3cc(CN4CCC(n5cc(NC(=O)c6coc(-c7ccnc(NCC8CC8)c7)n6)c(C(F)F)n5)CC4)cc(F)c3C2=O)C(=O)N1 (stereo not shown) [GT-04172, 2-(2-((cyclopropylmethyl)amino)pyridin-4-yl)-N-(3-(difluoromethyl)-1-(1-((2-(2,6-dioxopiperidin-3-yl)-7-fluoro-1-oxoisoindolin-5-yl)methyl)piperidin-4-yl)-1H-pyrazol-4-yl)oxazole-4-carboxamide]									< 50	< 50	< 50	100 to 500	< 50	< 50
CNC(=O)c1ccccc1Nc1cc(Nc2ccc(N3CCOCC3)cc2OC)ncc1C(F)(F)F [PND-1186, reference compound]		500 to 1000	1000 to 5000	100 to 500	500 to 1000	< 50	500 to 1000	1000 to 5000						

Further lines, results first:

IC50 for inhibiting the proliferation of tumor cells, T47D (T47D)	IC50 (Mino) [nM]	IC50 (HGC-27) [nM]	IC50 (SR) [nM]	IC50 (CCRF-CEM; Table 18, FAK inhibitor based) [nM]	IC50 (SW620; Table 18, FAK inhibitor based) [nM]	IC50 (PC-9) [nM]	IC50 (MDA-MB-231) [nM]	IC50 (CCRF-CEM; [1]) [nM]	IC50 (SW620; [1]) [nM]	IC50 (CAL-62) [nM]	IC50 (SU-DHL-4) [nM]	IC50 (Jurkat) [nM]	IC50 (LNcap) [nM]	SMILES
	1000 to 5000	500 to 1000	50 to 100	100 to 500	100 to 500	100 to 500	100 to 500							CNC(=O)c1ccccc1Nc1cc(Nc2ccc(N3CCC(N4CCN(Cc5ccc6c(c5)CN(C5CCC(=O)NC5=O)C6=O)CC4)CC3)cc2OC)ncc1C(F)(F)F (stereo not shown) [GT-03266, 2-((2-((4-(4-(4-((2-(2,6-dioxopiperidin-3-yl)-1-oxoisoindolin-5-yl)methyl)piperazin-1-yl)piperidin-1-yl)-2-methoxyphenyl)amino)-5-(trifluoromethyl)pyridin-4-yl)amino)-N-methylbenzamide]
		100 to 500	< 50	100 to 500		500 to 1000	100 to 500							CNC(=O)c1ccccc1Nc1cc(Nc2ccc(N3CCC(N4CCN(Cc5ccc6c(c5F)CN(C5CCC(=O)NC5=O)C6=O)CC4)CC3)cc2OC)ncc1C(F)(F)F (stereo not shown) [GT-03595, 2-((2-((4-(4-(4-((2-(2,6-dioxopiperidin-3-yl)-4-fluoro-1-oxoisoindolin-5-yl)methyl)piperazin-1-yl)piperidin-1-yl)-2-methoxyphenyl)amino)-5-(trifluoromethyl)pyridin-4-yl)amino)-N-methylbenzamide]
		500 to 1000	50 to 100	100 to 500		1000 to 5000	500 to 1000							CNC(=O)c1ccccc1Nc1cc(Nc2ccc(N3CCC(N4CCN(Cc5cc6c(cc5F)C(=O)N(C5CCC(=O)NC5=O)C6)CC4)CC3)cc2OC)ncc1C(F)(F)F (stereo not shown) [GT-03596, 2-((2-((4-(4-(4-((2-(2,6-dioxopiperidin-3-yl)-6-fluoro-1-oxoisoindolin-5-yl)methyl)piperazin-1-yl)piperidin-1-yl)-2-methoxyphenyl)amino)-5-(trifluoromethyl)pyridin-4-yl)amino)-N-methylbenzamide]
		500 to 1000	50 to 100	100 to 500		500 to 1000	500 to 1000							CNC(=O)c1ccccc1Nc1cc(Nc2ccc(N3CCC(N4CCN(Cc5cc(F)c6c(c5)CN(C5CCC(=O)NC5=O)C6=O)CC4)CC3)cc2OC)ncc1C(F)(F)F (stereo not shown) [GT-03597, 2-((2-((4-(4-(4-((2-(2,6-dioxopiperidin-3-yl)-7-fluoro-1-oxoisoindolin-5-yl)methyl)piperazin-1-yl)piperidin-1-yl)-2-methoxyphenyl)amino)-5-(trifluoromethyl)pyridin-4-yl)amino)-N-methylbenzamide]
